In article PMC3115942 (PLoS ONE, 2011):

How the values were obtained:
PC-3 cells [1] = experiment: In vitro antiproliferative assay (MTS), PC-3; type: cell-based, human; settings: 4 day
Experimental: (§1) Cells were plated at a density of 3000 (THLE-2 and PC-3) and 1000 (PANC-1, SUIT-2 and FEMX) cells per well (on the basis of their growth rate) in 200 µl of medium in a 96-well plate. Medium was changed daily, and after four days, the assay was read using a MTS kit (Promega) according to the instructions of the manufacturer. Graphs display average of percent growth with standard deviation (n = 8).

PANC-1 cells [2] = experiment: In vitro antiproliferative assay (MTS), PANC-1; type: cell-based, human; settings: 5 µM, 4 day
Experimental: as §1

[3] = test system: Gli1 protein in Sufu−/− MEF; experiment: Gli1 immunostaining of Sufu−/− MEF; type: cell-based, mouse; settings: 20 µM, 48 hours
PC-3 cells [4] = experiment: Passage growth assay, PC-3; type: cell-based, human; settings: 5 µM, passages of 5–7 days
Experimental: 20,000 cells were seeded per well in 6 well plates (triplicates) with DMSO or 5 µM MS-0022. Treatment medium was changed on day 3–5, and after 5–7 days the cells were trypsinized, re-suspended in medium and counted, before reseeding cells at 20,000/well for a subsequent passage. The average growth of MS-0022 treated cells was calculated as a percentage of the growth of the DMSO control at the end of each passage. Graphs display average of percent growth with standard deviation bars (n = 3).

PANC-1 cells [5] = experiment: Soft agar colony formation assay, PANC-1; type: cell-based, human; settings: 21 days
Experimental: 2000 PANC-1 or SUIT-2 cells were suspended in 1.5 mL growth media containing 0.35% agar (Oxoid), over a 1.5 mL base layer containing 0.5% agar in 6-well plates. The plates were incubated for 14 days (SUIT-2) and 21 days (PANC-1) and then stained for 1 h with 1 ml of 0.02% crystal violet (Sigma-Aldrich), and colonies were counted according to sizes; <0.2 mm (small), 0.2–1 mm (medium) and >1 mm (large). Data represent average numbers with standard deviation bars (n = 3). The experiments have been repeated with similar result.

Dose tolerance in mice = type: in vivo
Experimental: MS-0022 tolerance was tested by daily injections of 200 mg/kg MS-0022 for 5 days in 7–8 week old male C57BL mice. Animal were observed daily for outward signs of toxicity (weight loss, fur ruffling, hunched posture).

[6] = test system: Gli1 mRNA expression in Ptch−/− MEF; experiment: Real time PCR of Gli1 mRNA in Ptch−/− MEF; type: cell-based, mouse; settings: 5 µM, 48 hours
Experimental: Cells were lysed for RNA extraction after 48 or 72 hours of treatment. Total RNA from cultured cells or tumor tissue was isolated using the GeneElute miniprep kit (Sigma-Aldritch) following the manufacturer^'s instructions. cDNA was synthesized from the isolated mRNA using the Retroscript kit (Ambion), and real-time PCR was carried out using the SYBR Green PCR master mix (Stratagene) according to the manufacturer^'s instructions with an Mx3000P cycler (Stratagene). The relative concentrations of cDNA present in each sample were calculated by the MxPro software (Stratagene), normalized for GAPDH (mRNA from cells) or GUS (mRNA from tumors). For real time PCR primer sequences see Table 6. For the tumor tissue real time PCR, previously described human and mouse specific primers against GUSB, PTCH1 and GLI1were used.

Cc1cccn2cc(-c3ccc(NC(=O)c4ccccc4Br)cc3)nc12 [MS-0022, 2-bromo-N-(4-(8-methylimidazo[1,2-a]pyridin-2-yl)phenyl)benzamide]
growth (MTS), PC-3 (PC-3 cells [1]): growth was only reduced by MS-0022 | growth (MTS), PANC-1 (PANC-1 cells [2]): reduced growth | ratio of nuclear versus cytoplasmic Gli1 [3]: did not alter the ratio | total level of Gli1 in the cells [3]: the total level of Gli1 in the cells was reduced | growth reduction after passage 2, PC-3 (PC-3 cells [4]): 80% | soft agar colony formation, PANC-1 (PANC-1 cells [5]): reduction in large (Figure 2C–D, and G) and medium sized colonies | outward signs of toxicity or other side effects (Dose tolerance in mice; 200 mg/kg daily for 5 days): did not show any outward signs of toxicity | alterations in body weight (Dose tolerance in mice; daily IP injections of 200 mg/kg for 5 days): No statistically significant alterations | MTD at 5 days (Dose tolerance in mice; male, C57BL, mouse, in vivo, intraperitoneal, 200 mg/kg, mice): > 200 mg/kg | Gli1 mRNA expression in Ptch−/− MEFs [6]: reduced Gli1 mRNA expression
